Results on six molecules are retold here after patent US10125104B2, “Carotenoid derivative, pharmaceutically acceptable salt thereof, or pharmaceutically acceptable ester or amide thereof” (Asta Pharmaceuticals Co., Ltd., priority 2014, dated 2018).

A short description of data set [1]: Test for oral absorption: blood plasma concentration of astaxanthin after oral gavage. The class given is in vivo, Wistar rat. The settings on record: compared to astaxanthin (free form) and the extract from Haematococcus algae. The procedure: Test for Oral Absorption in […]
Each of the compound in Example 8, astaxanthin (free form) and an extract from Haematococcus algae (AstaReal L10, manufactured by Fuji Chemical Industries Co., Ltd., oil containing 10% astaxanthin extracted from Haematococcus algae) was diluted with 33% dimethyl sulfoxide, 60% polyethylene glycol and 0.03% aqueous carboxymethyl cellulose solution and prepared to have a concentration of 5 mg/ml as a conversion to astaxanthin free form. The prepared sample was administered to a Wistar rat fasted one night (male, 9 to 13 weeks old, 250 to 300 g of body weight, 2 or 4 animals per group) by oral gavage in an amount of astaxanthin (50 mg) per 1 kg of body weight. Then, the blood was collected at the time points of 3 hours, 6 hours and 24 hours and the blood plasma was isolated. To the obtained blood plasma (0.1 ml), acetone in an amount of 6 folds and hexane in an amount of 50 folds were added, and the solution was stirred well and centrifuged to obtain a hexane layer. The hexane layer was dried under reduced pressure and dissolved in acetone (0.1 ml). The obtained acetone solution (0.05 mL) was analyzed by high performance liquid chromatography (HPLC) under the following conditions and the blood concentration was measured. […]

Data set [2] concerns IL-1β mRNA in RAW264.7 cells. Briefly: Test for anti-inflammation in a cell: IL-1β mRNA by quantitative RT-PCR after LPS. The settings on record: for suppression of IL-1β gene expression (in words): RAW264.7 cells, LPS; for IL-1β Gene expressivity: relative to the control, LPS 1 ng/mL, 2 hours. The format is cell-based, mouse. As for the experimental part: Test for Anti-Inflammation in a Cell
These cells were cultured for 48 hours in 5% CO2 at 37° C. After the medium replacement, an aqueous solution of the sample was added to the medium and the cell was cultured for 24 hours. The medium was then replaced, LPS (1 ng/mL) was added thereto and the cell was cultured for 2 hours.
Then, the medium was removed and the RAW264.7 cells were washed with physiological phosphate buffer solution (PBS). This operation was performed 3 times. Then, Total RNA was extracted using RNeasy Mini Kit (QIAGEN Inc.), and the production amount of IL-1β mRNA which is an inflammatory cytokine, was measured by a quantitative RT-PCR method using PRISM 7000 (Applied Biosystem).

Data set [3] can be described thus: Test for confirmation of water solubility (distribution to water/methylene chloride). The class given is physicochemical. The procedure: Test for Confirmation of Water Solubility (Distribution to Water/Methylene Chloride)
To each of the samples (1 mg) in Table 43, water (5 mL) and methylene chloride (5 mL) were added and the mixture was shaken, which was called the group of Solution A. A 28% sodium methoxide/methanol solution (463 μL (2.33 mmol)) was dissolved in water (10 mL), and the aqueous solution (1 mL) was collected and dissolved in water (100 mL), which was called Solution B. To each of the group of Solution A, Solution B (1 mL) was added and shaken. The solution was left at room temperature, each of the aqueous layer and of the organic layer were measured by HPLC and the ratio of the compound in the aqueous layer was shown in Table 4.
HPLC conditions were as follows:
chromatograph (HITACHI LaChrom Elite D-2000), column (SHISEIDO CAPCELL PAK C18 (3 μm particle diameter, 4.6 mm×150 mm)), detection temperature (40° C.), detection wavelength (474 nm), flow rate (1.0 mL/min) and mobile phase set up (% A=0.025% TFA/water, % B=0.025% TFA/acetonitrile); 70% A/30% B (at the start), 50% B gradient until 2.5 minutes, 98% B gradient until 4.2 minutes and the ratio (98% B) maintained until 15 minutes. The ratio in the aqueous layer was calculated from the following equation. […]

Another data set concerns TNF-α. Nature of the data set: Test for anti-inflammation in rats (LPS intraperitoneally): blood plasma TNF-α by ELISA. The format is in vivo, Wistar rats. The settings on record: for TNF-α concentration in blood plasma: 4 mg/kg LPS i.p., then sample i.p., blood after 9 hours. The procedure:
(§1) Test for Anti-Inflammation in Rats
(§2) Six week-old Wistar rats (purchased from Sankyo Labo Service Corporation, 200-250 g body weight) were acclimatized for 1 week with free access to food under a 12/12-hr light-dark cycle. An aqueous solution of 4 mg/kg LPS (lipopolysaccharide, derived from Escherichia coli and manufactured by Wako Pure Chemical Industries, Ltd.) was injected intraperitoneally and then an aqueous solution of the sample was injected intraperitoneally. After 9 hours, the whole blood was collected from the ventral aorta and centrifuged for 10 minutes at 10,000 rpm, and the blood plasma was collected. The blood plasma TNF-α concentration was measured using a kit for measuring TNF-α (Rat TNF-alpha Quantikine ELISA Kit RTA00, manufactured by R&D Systems Inc.) and the blood plasma IL-1β concentration was measured using a kit for measuring IL-1β (Rat IL-1b/IL1F2 Quantikine ELISA Kit, manufactured by R&D Systems Inc.). The 3 to 4 animals per group were used. The blood plasma TNF-α concentration is shown in Table 46 and FIG. 3 and the blood plasma IL-1β concentration is shown in Table 46 and FIG. 4.

The next data set has as its system IL-1β. Nature of the data set: Test for anti-inflammation in rats (LPS intraperitoneally): blood plasma IL-1β by ELISA. The format is in vivo, Wistar rats. The settings on record: for IL-1β concentration in blood plasma: 4 mg/kg LPS i.p., then sample i.p., blood after 9 hours. As for the experimental part: as §1, §2
(ELISA stands for enzyme-linked immunosorbent assay.)

The conditions of data set [4]: digestive absorption; cited from earlier work.
Where [5] appears, read: compared to astaxanthin and disodium disuccinate astaxanthin.

As for `CC(C=CC=C(C)C=CC1=C(C)C(=O)C(OC(=O)CNC(=O)NCCCC(=O)O)CC1(C)C)=CC=CC=C(C)C=CC=C(C)C=CC1=C(C)C(=O)C(OC(=O)CNC(=O)NCCCC(=O)O)CC1(C)C` (stereo not drawn) [Example (8), 4-(3-{4-[18-(4-[3-(3-carboxylpropyl)ureidoacetoxy]-2,6,6-trimethyl-3-oxocyclohexa-1-enyl)-3,7,12,16-tetramethyloctadeca-1,3,5,7,9,11,13,15,17-nonaenyl]-3,5,5-trimethyl-2-oxocyclohexa-3-enyloxycarbonylmethyl}-ureido)butyric acid], in data set [1], the “oral absorbability (in words)” value is on record as “higher oral absorbability”.
Consider `CC(C=CC=C(C)C=CC1=C(C)C(=O)C(OC(=O)CNC(=O)NCCCC(=O)[O-])CC1(C)C)=CC=CC=C(C)C=CC=C(C)C=CC1=C(C)C(=O)C(OC(=O)CNC(=O)NCCCC(=O)[O-])CC1(C)C.[Na+].[Na+]` (stereo not drawn) [Example (22), 4-(3-{4-[18-(4-[3-(3-carboxypropyl)ureidoacetoxy]-2,6,6-trimethyl-3-oxocyclohexa-1-enyl)-3,7,12,16-tetramethyloctadeca-1,3,5,7,9,11,13,15,17-nonaenyl]-3,5,5-trimethyl-2-oxocyclohexa-3-enyloxycarbonylmethyl}-ureido)butyric acid disodium salt], for which the “suppression of IL-1β gene expression (in words)” value in data set [2] is given as “suppressed IL-1β gene expression superiorly to astaxanthin”. The figures for the “IL-1β Gene expressivity” value in data set [2] (sample concentration 5 μM), in data set [2] (sample concentration 25 μM) and in data set [2] (sample concentration 50 μM) were 0.92, 0.66 and 0.31, respectively.
Take `CC(C=CC=C(C)C=CC1=C(C)C(=O)C(OC(=O)CCC(=O)O)CC1(C)C)=CC=CC=C(C)C=CC=C(C)C=CC1=C(C)C(=O)C(OC(=O)CCC(=O)O)CC1(C)C` (stereo not drawn) [Astaxanthin disuccinate ester, astaxanthin disuccinic acid ester]: the “Ratio of aqueous layer” value in data set [3] (1 mg sample in water 5 mL / methylene chloride 5 mL plus dilute sodium methoxide solution, HPLC peak areas, 474 nm) turned out to be 43.8%.
Take `CC1=C(/C=C/C(C)=C/C=C/C(C)=C/C=C/C=C(C)/C=C/C=C(C)/C=C/C2=C(C)C(=O)C(OC(=O)CCC(=O)O)CC2(C)C)C(C)(C)CC(OC(=O)CCC(=O)O)C1=O` (stereo not drawn) [Disodium Disuccinate Astaxanthin (DDA), Disodium Disuccinate Astaxanthin, reference compound]: the “TNF-α concentration in blood plasma” value with TNF-α was 99.6 ± 99.9 pg/mL. Besides, in the data set with IL-1β, the “IL-1β concentration in blood plasma” value amounted to 311.7 ± 269.1 pg/mL.
As for `CC(C=CC=C(C)C=CC1=C(C)C(=O)C(O)CC1(C)C)=CC=CC=C(C)C=CC=C(C)C=CC1=C(C)C(=O)C(O)CC1(C)C` (stereo not drawn) [Astaxanthin, 6-hydroxy-3-(18-[4-hydroxy-2,6,6-trimethyl-3-oxo-1-cyclohexenyl]-3,7,12,16-tetramethyloctadeca-1,3,5,7,9,11,13,15,17-nonaenyl)-2,4,4-trimethyl-2-cyclohexen-1-one, reference compound], in data set [3], the “water solubility (in words)” value is “extremely low solubility in water”. Moreover, the “IL-1β Gene expressivity” value came out at 1.00 in data set [2] (sample concentration 5 μM), 0.96 in data set [2] (sample concentration 25 μM) and 0.77 in data set [2] (sample concentration 50 μM). Besides, in the data set on TNF-α, the “TNF-α concentration in blood plasma” value amounted to 112.0 ± 35.6 pg/mL. Moreover, in the data set on IL-1β, the “IL-1β concentration in blood plasma” value amounted to 203.9 ± 165.3 pg/mL. Besides, the biological availability result in data set [4] is “around several percent”.
For `CC(C=CC=C(C)C=CC1=C(C)C(=O)C(OC(=O)CNC(=O)NCCCC(=O)O)CC1(C)C)=CC=CC=C(C)C=CC=C(C)C=CC1=C(C)C(=O)C(OC(=O)CNC(=O)NCCCC(=O)O)CC1(C)C.NCCCC[C@H](N)C(=O)O.NCCCC[C@H](N)C(=O)O` (stereo not drawn) [Example (23), 4-(3-{4-[18-(4-[3-(3-carboxypropyl)ureidoacetoxy]-2,6,6-trimethyl-3-oxocyclohexa-1-enyl)-3,7,12,16-tetramethyloctadeca-1,3,5,7,9,11,13,15,17-nonaenyl]-3,5,5-trimethyl-2-oxocyclohexa-3-enyloxycarbonylmethyl}-ureido)butyric acid dilysine salt], the “suppression of IL-1β gene expression (in words)” value in data set [2] is given as “suppressed IL-1β gene expression superiorly to astaxanthin”. For the same molecule, the “IL-1β Gene expressivity” value in data set [2] (sample concentration 5 μM) is 0.88. For the same molecule, in the data set on TNF-α, the “TNF-α concentration in blood plasma” value was found to be 81.8 ± 83.5 pg/mL. Moreover, the “suppression of generation of TNF-α (in words)” value with TNF-α (setting [5]) was “suppressed generation of TNF-α and of IL-1β more effectively”. The “IL-1β concentration in blood plasma” value in the data set on IL-1β was found to be 146.3 ± 98.0 pg/mL. Besides, the “suppression of generation of IL-1β (in words)” value in the data set with IL-1β (setting [5]) is “suppressed generation of TNF-α and of IL-1β more effectively”.
